# Experiments:
# [1] = slurry conversion of polymorph mixtures (relative thermodynamic stability); format: physicochemical; conditions: mixtures of H2-1 and H2-2 in aqueous ethanol slurries; conversion observed at 5, 25, 50 and 80° C.
# [2] = aqueous solubility; format: physicochemical; conditions: water; depending on crystalline form
# [3] = solid-state stability (light, heat, physical and chemical); format: physicochemical
# [4] = molecular target: ultrarapidly activating, sustained potassium current (IKur, also known as Kv1.5) (Homo sapiens, UniProt P22460); conditions: cited from earlier work
# [5] = hygroscopicity; format: physicochemical
# [6] = oral bioavailability; conditions: in vivo
# ultrarapidly activating, sustained potassium current (IKur, also known as Kv1.5), sequence (P22460 whole entry): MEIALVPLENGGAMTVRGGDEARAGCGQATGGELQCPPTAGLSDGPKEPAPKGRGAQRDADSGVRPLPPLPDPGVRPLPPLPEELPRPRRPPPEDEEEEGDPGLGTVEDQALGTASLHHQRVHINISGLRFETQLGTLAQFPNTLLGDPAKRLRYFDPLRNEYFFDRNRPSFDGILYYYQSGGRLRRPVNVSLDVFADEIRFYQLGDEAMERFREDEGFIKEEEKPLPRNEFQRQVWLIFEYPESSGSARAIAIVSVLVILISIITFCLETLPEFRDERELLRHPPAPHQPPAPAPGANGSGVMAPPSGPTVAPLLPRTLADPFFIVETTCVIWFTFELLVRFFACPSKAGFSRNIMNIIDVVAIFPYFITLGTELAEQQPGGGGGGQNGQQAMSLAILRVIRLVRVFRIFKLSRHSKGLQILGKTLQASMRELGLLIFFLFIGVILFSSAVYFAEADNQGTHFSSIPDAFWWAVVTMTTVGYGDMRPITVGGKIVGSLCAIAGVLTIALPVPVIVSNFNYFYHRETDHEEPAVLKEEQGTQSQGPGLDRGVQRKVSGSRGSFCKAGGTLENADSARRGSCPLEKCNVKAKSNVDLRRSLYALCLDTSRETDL
smiles,measurement,setting,value
CC1=C(C(=O)N2CCC[C@H]2c2ccc(F)cc2)[C@@H](c2ccc(Cl)c(Cl)c2)n2nccc2N1 [H2-2 dihydrate],relative thermodynamic stability of polymorphs,[1],thermodynamically more stable than the H2-1 dihydrate
"CC1=C(C(=O)N2CCC[C@H]2c2ccc(F)cc2)[C@@H](c2ccc(Cl)c(Cl)c2)n2nccc2N1 [IKur compound, (2S)-1-[[(7R)-(3,4-dichlorophenyl)-4,7-dihydro-5-methylpyrazolo[1,5-]pyrimidine-6-yl]carbonyl]-2-(4-fluorophenyl)pyrrolidine]",solubility,[2],2 to 4 µg/mL
same,sensitivity to light and heat,[3]; amorphous form and crystalline forms,sensitive to light and heat
same,blocking of IKur (Kv1.5),[4],selective blocker
CC1=C(C(=O)N2CCC[C@H]2c2ccc(F)cc2)[C@@H](c2ccc(Cl)c(Cl)c2)n2nccc2N1 [N-3 anhydrate],solid-state stability (physical and chemical),[3],satisfactory solid-state stability
same,hygroscopicity,[5],low hygroscopicity
same,oral bioavailability,[6],satisfactory oral bioavailability
